Five molecules from patent US10934274B2, “Quinoline derivatives as TAM RTK inhibitors” (Qurient Co., Ltd., priority 2015, dated 2021) can be followed below.

Bounds are passed on as bounds.

As a reminder, the Kd is a measure of binding affinity in units of concentration.

One assay concerns the target T1, TYRO3 (Homo sapiens, UniProt Q06418).
T1 construct: purchased Life Technologies
T1 sequence (Q06418 41-890): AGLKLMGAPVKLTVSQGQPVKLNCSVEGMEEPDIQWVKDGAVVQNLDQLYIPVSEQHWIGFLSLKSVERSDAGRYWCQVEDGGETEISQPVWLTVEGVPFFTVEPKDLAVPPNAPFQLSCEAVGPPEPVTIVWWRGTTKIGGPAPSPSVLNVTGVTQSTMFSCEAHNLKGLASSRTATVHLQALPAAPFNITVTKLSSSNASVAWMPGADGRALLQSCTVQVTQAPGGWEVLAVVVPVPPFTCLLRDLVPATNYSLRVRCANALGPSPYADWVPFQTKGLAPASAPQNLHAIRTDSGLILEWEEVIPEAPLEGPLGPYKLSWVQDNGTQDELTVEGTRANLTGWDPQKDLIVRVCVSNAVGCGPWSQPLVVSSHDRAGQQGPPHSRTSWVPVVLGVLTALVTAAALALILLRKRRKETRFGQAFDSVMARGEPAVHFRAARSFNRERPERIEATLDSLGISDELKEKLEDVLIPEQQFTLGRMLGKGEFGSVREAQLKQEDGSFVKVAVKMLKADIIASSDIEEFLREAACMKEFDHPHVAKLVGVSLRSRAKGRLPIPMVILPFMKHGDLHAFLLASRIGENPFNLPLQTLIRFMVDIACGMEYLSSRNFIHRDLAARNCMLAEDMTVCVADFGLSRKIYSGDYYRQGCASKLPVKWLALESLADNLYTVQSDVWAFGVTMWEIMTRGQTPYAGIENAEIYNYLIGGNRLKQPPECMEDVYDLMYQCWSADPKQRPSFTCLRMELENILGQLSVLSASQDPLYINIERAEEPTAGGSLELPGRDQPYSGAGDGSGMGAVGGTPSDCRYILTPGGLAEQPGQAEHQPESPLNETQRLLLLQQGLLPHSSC
The experiment in a line: LanthaScreen Eu kinase binding assay, TYRO3. As to conditions: Tracer 236.

In the next assay the target is T2, Axl (Homo sapiens, UniProt P30530).
T2 construct: purchased Life Technologies
T2 sequence (P30530 26-894): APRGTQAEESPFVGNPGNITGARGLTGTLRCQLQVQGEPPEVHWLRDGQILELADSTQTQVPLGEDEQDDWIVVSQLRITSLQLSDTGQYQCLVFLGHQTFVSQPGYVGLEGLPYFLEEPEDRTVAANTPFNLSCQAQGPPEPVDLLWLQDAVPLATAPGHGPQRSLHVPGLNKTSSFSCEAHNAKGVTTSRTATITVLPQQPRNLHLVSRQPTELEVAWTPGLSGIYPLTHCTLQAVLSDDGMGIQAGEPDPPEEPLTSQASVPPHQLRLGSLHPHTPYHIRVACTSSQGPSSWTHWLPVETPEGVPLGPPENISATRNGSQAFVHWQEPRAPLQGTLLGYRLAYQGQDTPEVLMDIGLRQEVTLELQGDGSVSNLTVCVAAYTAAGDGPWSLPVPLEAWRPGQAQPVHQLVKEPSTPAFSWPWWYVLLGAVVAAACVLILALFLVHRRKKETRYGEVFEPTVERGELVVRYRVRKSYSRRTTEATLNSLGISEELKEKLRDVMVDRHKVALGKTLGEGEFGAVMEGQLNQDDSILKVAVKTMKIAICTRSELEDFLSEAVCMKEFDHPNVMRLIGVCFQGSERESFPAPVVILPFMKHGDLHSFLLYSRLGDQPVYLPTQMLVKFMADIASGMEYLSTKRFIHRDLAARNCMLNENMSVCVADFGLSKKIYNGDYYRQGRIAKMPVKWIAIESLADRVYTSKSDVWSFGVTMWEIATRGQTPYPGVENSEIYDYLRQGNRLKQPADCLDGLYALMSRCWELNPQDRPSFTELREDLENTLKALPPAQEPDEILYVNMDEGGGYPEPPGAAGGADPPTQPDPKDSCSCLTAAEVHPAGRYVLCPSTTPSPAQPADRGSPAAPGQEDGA
The experiment in a line: LanthaScreen Eu kinase binding assay, Axl. As to conditions: Tracer 236. For orientation: TR-FRET usually uses a lanthanide donor and a delayed reading to cut background.

The test system of the next assay is HCC827/ER cells. Put plainly: WST-1 cell viability assay in erlotinib-resistant cells. As to conditions: compound combined with Erlotinib at constant 1:1 ratio, 3 days, FBS 1%.

Protocol for HCC827/ER cells: The killed cells were discarded and the remaining cells were cultured in a drug-free medium up to 80% confluence. Subsequently, cells were continuously exposed to increasing drug doses of up to 10 μM over a period of 8 months.
HCC827/ER cells were seeded in a 96-well plate with their respective media containing 10% FBS at 5000 cells/well. After seeding, the HCC827/ER cells were incubated for approximately 24 hours. […] The viability of the HCC827/ER cells was determined by adding WST-1 reagent according to Manufacturer's instructions (DoGenbio co., Ltd) and incubating for four hours. The plates were then read using an absorbance of 440 nm on Tecan Microplate reader (Infinite M200 pro, TECAN). The HCC827/ER cells' viability were calculated relative to vehicle (DMSO) control wells.

As to `CCOc1cn(CCOC(F)(F)F)nc1C(=O)Nc1ccc(Oc2ccnc3cc(OC)c(OC)cc23)cn1` [Compound 38], the Kd at TYRO3 was 100 to 1000 nM; at Axl it was below 100 nM. The “Combination effect of compound and erlotinib on inhibition activity in Erlotinib-resistant cell-line” value in the assay with HCC827/ER cells was “synergistic effect”.
For the molecule `COc1cc2nccc(Oc3ccc(NC(=O)c4nn(-c5cncnc5C5CC5)cc4OCC(F)(F)F)nc3)c2cc1OC` [Compound 261], the dissociation constant (Kd) on TYRO3 and on Axl was below 100 nM in each case.
As for `CCOc1cn(-c2cccs2)nc1C(=O)Nc1ccc(Oc2ccnc3cc(OC)c(OC)cc23)cn1` [Compound 17], the dissociation constant Kd on TYRO3 and on Axl was below 100 nM in each case.
As to `COc1cc2nccc(Oc3ccc(NC(=O)c4nn(-c5cnc(N)nc5)cc4OC(C)C)nc3)c2cc1OC` [Compound 260], the Kd at TYRO3 and at Axl was below 100 nM in each case.
In the case of `CCOc1cn(-c2ccncc2C)nc1C(=O)Nc1ccc(Oc2ccnc3cc(OC)c(OC)cc23)cn1` [Compound 34], the Kd at TYRO3 and at Axl was below 100 nM throughout.
